Active and inactive are the calls of the source. The rule behind the calls is not given here.
Key:
HK-2 [1] = assay: Anti-inflammatory activity against H/R induced damage in human HK-2 cells assessed as inhibition of TLR4 protein expression pretreated with compound followed by hypoxic reoxygenation induction; type: functional, cell-based
HK-2 [2] = assay: Anti-inflammatory activity against H/R induced damage in human HK-2 cells assessed as inhibition of p-NFkappaB protein expression pretreated with compound followed by hypoxic reoxygenation induction; type: functional, cell-based
HK-2 [3] = assay: Anti-inflammatory activity against H/R induced damage in human HK-2 cells assessed as inhibition of MyD88 protein expression pretreated with compound followed by hypoxic reoxygenation induction; type: functional, cell-based
HK-2 [4] = assay: Anti-inflammatory activity against H/R induced damage in human HK-2 cells assessed as inhibition of IL-1beta protein expression pretreated with compound followed by hypoxic reoxygenation induction; type: functional, cell-based
Rattus norvegicus = organism: Rattus norvegicus; assay: Protection against kidney ischemia-reperfusion injury in rat model assessed as decrease in blood creatinine level; type: functional, organism-based

SMILES | Activity (HK-2 [1]) | Activity (HK-2 [2]) | Activity (HK-2 [3]) | Activity (HK-2 [4]) | Activity (Rattus norvegicus)
O=C(O)[C@@H]1C[C@@H](O)[C@@H](O)[C@H](O[C@@H]2[C@@H](O)[C@@H](O)[C@H](O[C@H]([C@@H](O)[C@@H](O)C(=O)O)[C@H](O)C(=O)O)O[C@@H]2C(=O)O)O1 | Active | Active | Active | Active | 
O=C(O)[C@@H]1C[C@@H](O)[C@@H](O)[C@H](O[C@@H]2[C@@H](O)[C@@H](O)[C@H](O[C@@H]3[C@@H](O)[C@@H](O)[C@H](O[C@@H]4[C@@H](O)[C@@H](O)[C@@H](O)O[C@@H]4C(=O)O)O[C@@H]3C(=O)O)O[C@@H]2C(=O)O)O1 | Active |  |  |  | 
O=C(O)[C@@H]1C[C@@H](O)[C@@H](O)[C@H](O[C@@H]2[C@@H](O)[C@@H](O)[C@H](O[C@@H]3[C@@H](O)[C@@H](O)[C@@H](O)O[C@@H]3C(=O)O)O[C@@H]2C(=O)O)O1 |  |  |  | Active | Active
O=C(O)[C@@H]1C[C@@H](O)[C@@H](O)[C@H](O[C@@H]2[C@@H](O)[C@@H](O)[C@@H](O)O[C@@H]2C(=O)O)O1 | Active |  |  |  | Active
